Test results as given in paper PMC8406801, “Naringenin Inhibits Platelet Activation and Arterial Thrombosis Through Inhibition of Phosphoinositide 3-Kinase and Cyclic Nucleotide Signaling” (Frontiers in Pharmacology, 2021).
“And” between values parts separate entries of the source, which are not always exact repeats. Identical values can stand only once. Like-named read-outs stand apart in the source and are kept apart here.

Legend:
[1] = system: PRP (platelet-rich plasma); test: ADP (10 μmol/L)-induced aggregation of PRP in vitro; assay type: cell-based, rat; conditions: for Aggregation (%): raw data
Experimental: (§1) Washed rat platelets were prepared as described previously ([Gao et al., 2011]) with a minor modification. Briefly, rat blood was drawn from the abdominal aorta into the siliconized vacutainers containing 1:9 (v/v) 3.8% sodium citrate, supplemented with 100 ng/ml prostaglandin E1 (PGE1) and centrifuged at 300 × g for 6 min at room temperature. Platelet-rich plasma (PRP) was obtained, and after the addition of 100 ng/ml PGE1, platelets were pelleted at 900 × g for 10 min. Platelets were washed once in Tyrode’s buffer (12 mM NaHCO3, 138 mM NaCl, 5.5 mM glucose, 2.9 mM KCl, 2 mM MgCl2, 0.42 mM NaH2PO4, 10 mM HEPES, pH 7.4) containing 100 ng/ml PGE1, and finally resuspended in Tyrode’s buffer containing 0.02 U/mL apyrase to a final concentration of 4×10^8 cells/mL. Washed platelets were preincubated with vehicle (0.4% dimethyl sulfoxide) or various concentrations of naringenin in the presence of 2 mM CaCl2 for 5 min at 37°C, and then further stimulated by ADP (10 μM), thrombin (0.2 U/mL) or collagen (2 μg/ml). The maximum platelet aggregation rate was detected within 5 min with continuous stirring.
Platelet aggregation was induced by ADP using washed platelets and PRP. Washed platelets were preincubated with vehicle (containing 0.4% DMSO) or different doses (100, 200, 400, and 800 μM) of naringenin or naringin for 5 min before activation with ADP (10 μM) for 5 min. […] For example, naringenin, at doses of 100 and 800 μM, decreased ADP-induced platelet aggregation to 54.5 ± 6.2% and 6.3 ± 1.7%, respectively (n = 6; p < 0.001, control group platelet aggregation was taken as 100%) (Figure 1F). […] Because dietary flavonoids have been reported to bind plasma proteins and cause the lowering of inhibitory potency in PRP ([Wright et al., 2013]), the ability of naringenin and naringin on platelet function in PRP was investigated to compare their effects with washed platelets.
(§2) FIGURE 1 Effects of naringenin and naringin on platelet aggregation. Chemical structure of naringin (A) and naringenin (B). The effects of naringin (C) or naringenin (D) on PRP were measured following stimulation with 10 μmol/L ADP. Rat washed platelet aggregation performed with or without different concentrations of naringin (E) or naringenin (F) was recorded after stimulation with 10 μmol/L ADP. Similarly, Washed platelet aggregation performed with vehicle or various concentrations of naringenin was recorded after stimulation with 0.2 U/mL thrombin (G) or 2 μg/ml collagen (H). WP represents washed platelets. Data are expressed as means ± SD (n = 6), the level of aggregation obtained at 5 min with vehicle-treated samples (0 μM) was taken as 100%. *p < 0.05, **p < 0.01, ***p < 0.001 compared with the vehicle control group.

washed rat platelets = test: Collagen (2 μg/ml)-induced aggregation of washed platelets; assay type: cell-based; conditions: for Aggregation (%) / Aggregation % of control: washed platelets, single replicates; for Aggregation (%): raw data
Experimental: as §1, §2

PI3Kp110β = test: Immunoblotting of PI3Kp110β in ADP-stimulated washed platelets; assay type: cell-based, rat; conditions: ADP 10 μmol/L, single replicates; for PI3Kp110β / GAPDH: raw data
Experimental: (§3) For in vitro platelet aggregation, aliquots of washed platelets were preincubated with vehicle or various concentrations of naringenin for 5 min and stimulated with ADP (10 μmol/L) under stirring at 37°C for 5 min. For ex vivo platelet aggregation, PRP was incubated at 37°C for 5 min and stimulated with ADP (5 μmol/L) under stirring at 37 °C. The platelet aggregation was terminated by adding ethylenediaminetetraacetic acid (EDTA; 10 mM). Total protein was prepared using RIPA lysis buffer and protein content was determined by bicinchoninic acid (BCA) protein assay kit. Equal amounts of platelet proteins (30 μg) were separated on 10% SDS polyacrylamide gel electrophoresis (SDS-PAGE) and then transferred to poly vinylidene difluoride (PVDF) membranes and subjected to western blot. Blots were blocked with TBS-Tween 20 containing 5% BSA and probed with primary antibodies diluted in blocking solution at 4°C overnight followed by incubation with the corresponding HRP secondary antibodies. The protein bands were visualized using enhanced chemiluminescence (ECL).
(§4) FIGURE 4 Naringenin inhibits PI3K-mediated signaling in ADP-induced platelets. Washed rat platelets were preincubated without or with naringenin at 37°C for 5 min, and then stimulated with ADP (10 μmol/L) under stirring for 5 min. Platelet proteins were then extracted and analyzed by immunoblotting using PI3Kp110β antibody (A) and phospho-specific antibodies such as Akt^Ser473 (B), Akt^Thr308 (C), ERK1/2^Thr202/Tyr204 (D) and GSK3β^Ser9 (E). Total level of GAPDH was measured on each sample as a loading control. The blots shown are representative of three separate experiments. The relative protein expression levels were quantified by ImageJ 1.47v software. The level of relative protein expression obtained with vehicle control (0 μM) was taken as 1. R represents the level of relative protein expression in resting platelets. Data are expressed as means ± SD (n = 3). *p < 0.05, **p < 0.01, ***p < 0.001 compared with the vehicle control group.

ERK1/2 phosphorylation = test: Immunoblotting of phospho-ERK1/2 (Thr202/Tyr204) in ADP-stimulated washed platelets; assay type: cell-based, rat; conditions: ADP 10 μmol/L, single replicates; for p-ERK1/2 / t-ERK: raw data
Experimental: as §3, §4

[2] = system: GSK3β Ser9 phosphorylation; test: Immunoblotting of phospho-GSK3β (Ser9) in ADP-stimulated washed platelets; assay type: cell-based, rat; conditions: for p-GSK3β / t-GSK3β / p-GSK3β / t-GSK3β (Fold to ADP only): ADP 10 μmol/L, single replicates; for p-GSK3β / t-GSK3β: raw data
Experimental: as §3, §4

`O=C1C[C@@H](c2ccc(O)cc2)Oc2cc(O)cc(O)c21` [Naringenin] was tested, and the “decrease of aggregation in PRP” value ([1]; ADP-induced, 100 μM) was 18%, the “Aggregation (%)” value ([1]; PRP, ADP 10 μmol/L, compound 100 μM, single replicates) was 44.9% and 44.8% and 49.7% and 47.9% and 48.3% and the “Aggregation % of control” value ([1]; PRP, ADP 10 μmol/L, compound 100 μM, single replicates, 100 µM) was 78.3 % of control and 86.8 % of control and 83.7 % of control and 79.5 % of control and 84.4 % of control. The “Aggregation (%)” value ([1]; PRP, ADP 10 μmol/L, compound 200 μM, single replicates) was 42.5% and 44.3% and 48.9% and 47.2% and 39.7%, the “Aggregation % of control” value ([1]; PRP, ADP 10 μmol/L, compound 200 μM, single replicates, 200 µM) was 77.4 % of control and 85.4 % of control and 82.4 % of control and 69.3 % of control and 74.1 % of control and the “Aggregation (%)” value ([1]; PRP, ADP 10 μmol/L, compound 400 μM, single replicates) was 39.7% and 31.6% and 37.9% and 34.1% and 44.8%. For the same compound, the “Aggregation % of control” value ([1]; PRP, ADP 10 μmol/L, compound 400 μM, single replicates, 400 µM) was 66.9 % of control and 69.3 % of control and 55.2 % of control and 66.2 % of control and 59.6 % of control and 78.3 % of control, the “Aggregation (%)” value ([1]; PRP, ADP 10 μmol/L, compound 800 μM, single replicates) was 30.9% and 33.6% and 36.0% and 28.9% and 28.6% and 38.4% and the “Aggregation % of control” value ([1]; PRP, ADP 10 μmol/L, compound 800 μM, single replicates, 800 µM) was 58.7 % of control and 62.9 % of control and 50.5 % of control and 50.0 % of control and 67.1 % of control. It also gave an activity at 100 µM ([1]; Rattus norvegicus, PRP, ADP 10 μmol/L, compound 100 μM, single replicates, read-out: Aggregation % of control) of 78.4%, an activity at 200 µM ([1]; Rattus norvegicus, PRP, ADP 10 μmol/L, compound 200 μM, single replicates, read-out: Aggregation % of control) of 74.2% and an activity at 800 µM ([1]; Rattus norvegicus, PRP, ADP 10 μmol/L, compound 800 μM, single replicates, read-out: Aggregation % of control) of 54%. The IC50 (washed rat platelets) was roughly 236 µM, the IC50 (washed rat platelets; Rattus norvegicus, Platelet) was 236 ± 33.1 µM and the “Aggregation (%)” value (washed rat platelets; 100 μM) was 32.0% and 39.6% and 43.9% and 35.0% and 27.0% and 45.0%. For the same compound, the “Aggregation % of control” value (washed rat platelets; 100 μM) was 75.4 % of control and 93.4 % of control and 103.5 % of control and 82.5 % of control and 63.6 % of control and 106.1 % of control, the “Aggregation (%)” value (washed rat platelets; 200 μM) was 24.1% and 37.0% and 14.9% and 25.4% and 24.3% and 10.0% and the “Aggregation % of control” value (washed rat platelets; 200 μM) was 56.8 % of control and 87.2 % of control and 35.1 % of control and 59.9 % of control and 57.3 % of control and 23.6 % of control. The “Aggregation (%)” value (washed rat platelets; 400 μM) was 10.0% and 14.0% and 11.7% and 7.9% and 15.4% and 4.9%, the “Aggregation % of control” value (washed rat platelets; 400 μM) was 23.6 % of control and 33.0 % of control and 27.6 % of control and 18.6 % of control and 36.3 % of control and 11.6 % of control and the “Aggregation (%)” value (washed rat platelets; 800 μM) was 7.3% and 9.1% and 9.0% and 4.9% and 4.2% and 14.0%. For the same compound, the “Aggregation % of control” value (washed rat platelets; 800 μM) was 17.2 % of control and 21.5 % of control and 21.2 % of control and 11.6 % of control and 9.9 % of control and 33.0 % of control, the “PI3Kp110β / GAPDH” value (PI3Kp110β; 100 μM) was 0.2747 and 0.1851 and 0.4122 and the “PI3Kp110β / GAPDH (Fold to ADP only)” value (PI3Kp110β; 100 μM) was 0.5384 Fold to ADP only and 0.3629 Fold to ADP only and 0.8080 Fold to ADP only. For the same compound, the “PI3Kp110β / GAPDH” value (PI3Kp110β; 200 μM) was 0.2677 and 0.1570 and 0.3210, the “PI3Kp110β / GAPDH (Fold to ADP only)” value (PI3Kp110β; 200 μM) was 0.5248 Fold to ADP only and 0.3077 Fold to ADP only and 0.6292 Fold to ADP only and the “PI3Kp110β / GAPDH” value (PI3Kp110β; 400 μM) was 0.1072 and 0.1459 and 0.2766. The “PI3Kp110β / GAPDH (Fold to ADP only)” value (PI3Kp110β; 400 μM) was 0.2102 Fold to ADP only and 0.2861 Fold to ADP only and 0.5422 Fold to ADP only, the “PI3Kp110β / GAPDH” value (PI3Kp110β; 800 μM) was 0.0408 and 0.0426 and 0.1130 and the “PI3Kp110β / GAPDH (Fold to ADP only)” value (PI3Kp110β; 800 μM) was 0.0801 Fold to ADP only and 0.0835 Fold to ADP only and 0.2214 Fold to ADP only. For the same compound, the “p-ERK1/2 / t-ERK” value (ERK1/2 phosphorylation; 100 μM) was 0.3358 and 0.4551 and 0.3494, the “p-ERK1/2 / t-ERK (Fold to ADP only)” value (ERK1/2 phosphorylation; 100 μM) was 0.4798 Fold to ADP only and 0.6502 Fold to ADP only and 0.4991 Fold to ADP only and the “p-ERK1/2 / t-ERK” value (ERK1/2 phosphorylation; 200 μM) was 0.2390 and 0.3446 and 0.2653. The “p-ERK1/2 / t-ERK (Fold to ADP only)” value (ERK1/2 phosphorylation; 200 μM) was 0.3414 Fold to ADP only and 0.4923 Fold to ADP only and 0.3790 Fold to ADP only, the “p-ERK1/2 / t-ERK” value (ERK1/2 phosphorylation; 400 μM) was 0.0291 and 0.2751 and 0.1193 and the “p-ERK1/2 / t-ERK (Fold to ADP only)” value (ERK1/2 phosphorylation; 400 μM) was 0.0416 Fold to ADP only and 0.3930 Fold to ADP only and 0.1704 Fold to ADP only. For the same compound, the “p-ERK1/2 / t-ERK” value (ERK1/2 phosphorylation; 800 μM) was 0.0106 and 0.1491 and 0.1406, the “p-ERK1/2 / t-ERK (Fold to ADP only)” value (ERK1/2 phosphorylation; 800 μM) was 0.0152 Fold to ADP only and 0.2129 Fold to ADP only and 0.2008 Fold to ADP only and the “p-GSK3β / t-GSK3β” value ([2]; 100 μM) was 0.3609 and 0.3982 and 0.3384. The “p-GSK3β / t-GSK3β (Fold to ADP only)” value ([2]; 100 μM) was 0.5893 Fold to ADP only and 0.6502 Fold to ADP only and 0.5525 Fold to ADP only, the “p-GSK3β / t-GSK3β” value ([2]; 200 μM) was 0.4301 and 0.3431 and 0.4790 and the “p-GSK3β / t-GSK3β (Fold to ADP only)” value ([2]; 200 μM) was 0.7022 Fold to ADP only and 0.5603 Fold to ADP only and 0.7821 Fold to ADP only. The “p-GSK3β / t-GSK3β” value ([2]; 400 μM) was 0.3379 and 0.5076 and 0.5137, the “p-GSK3β / t-GSK3β (Fold to ADP only)” value ([2]; 400 μM) was 0.5517 Fold to ADP only and 0.8288 Fold to ADP only and 0.8388 Fold to ADP only and the “p-GSK3β / t-GSK3β” value ([2]; 800 μM) was 0.4062 and 0.4495 and 0.5157. The “p-GSK3β / t-GSK3β (Fold to ADP only)” value ([2]; 800 μM) was 0.6632 Fold to ADP only and 0.7339 Fold to ADP only and 0.8420 Fold to ADP only and the “influence on GSK3β phosphorylation” value ([2]; ADP-induced platelets) was “no influence”.
